How the values were obtained:
hCA XII = hCA XII (Homo sapiens, UniProt O43570); assay: stopped flow CO2 hydrase assay, hCA XII
Excerpt: (§1) A stopped flow CO2 hydrase assay was adopted using an SX.18 MV-R Applied Photophysics (Oxford, UK) stopped-flow instrument to assess the inhibition against the various CA isozymes[33].

hCA IX = hCA IX (Homo sapiens, UniProt Q16790); assay: stopped flow CO2 hydrase assay, hCA IX
Excerpt: as §1

hCA I = hCA I (Homo sapiens, UniProt P00915); assay: stopped flow CO2 hydrase assay, hCA I; details: for inhibitory activity against hCA I (in words): abstract statement
Excerpt: as §1

hCA II = hCA II (Homo sapiens, UniProt P00918); assay: stopped flow CO2 hydrase assay, hCA II
Excerpt: as §1

hCAII = details: read-out: IC50 against hCAII; cited from earlier work

hCA I, sequence (P00915 whole entry): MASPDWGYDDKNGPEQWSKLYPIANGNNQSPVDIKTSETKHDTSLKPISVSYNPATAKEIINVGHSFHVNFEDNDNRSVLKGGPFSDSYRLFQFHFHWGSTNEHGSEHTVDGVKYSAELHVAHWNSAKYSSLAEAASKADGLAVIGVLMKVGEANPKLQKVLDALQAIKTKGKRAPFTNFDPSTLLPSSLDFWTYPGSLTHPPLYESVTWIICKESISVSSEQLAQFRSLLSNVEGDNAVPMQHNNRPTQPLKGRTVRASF
hCA XII, sequence (O43570 25-354): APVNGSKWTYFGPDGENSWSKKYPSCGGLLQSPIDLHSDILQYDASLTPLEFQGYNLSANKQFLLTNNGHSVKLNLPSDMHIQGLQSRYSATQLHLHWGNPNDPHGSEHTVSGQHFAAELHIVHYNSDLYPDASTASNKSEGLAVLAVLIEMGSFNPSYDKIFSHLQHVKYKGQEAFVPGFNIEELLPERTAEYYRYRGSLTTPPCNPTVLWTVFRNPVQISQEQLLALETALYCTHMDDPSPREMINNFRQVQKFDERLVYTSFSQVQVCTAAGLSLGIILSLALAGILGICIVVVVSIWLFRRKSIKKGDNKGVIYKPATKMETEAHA

Structure (SMILES) | melting point [°C] | Ki (hCA XII) [nM] | Ki (hCA IX) [nM] | Ki (hCA I) [nM] | Ki (hCA II) [nM] | inhibitory activity against hCA I (in words) (hCA I) | IC50 (hCAII) [nM]
CCOC(=O)c1ccc(NC(=S)NC(=O)c2ccc(Cl)cc2)cc1 [Compound 6b, Ethyl 4-[3-(4-chlorobenzoyl)thioureido]benzoate] | 219 to 221 | > 100000 | 1400 | > 100000 | > 100000 | – | –
COc1cc(NC(C)=O)ccc1C(=O)NC(=S)Nc1ccc(S(N)(=O)=O)cc1 [Compound 12a, 4-Acetamido-2-methoxy-N-[(4-sulfamoylphenyl)carbamothioyl]benzamide] | 225 to 227 | 83 | 32.2 | 67.6 | 15.5 | significant inhibitory activity | –
COc1cc(NC(=O)c2ccc(C)cc2)ccc1C(=O)NC(=S)Nc1ccc(S(N)(=O)=O)cc1 [Compound 12c, 2-Methoxy-4-(4-methylbenzamido)-N-[(4-sulfamoylphenyl)carbamothioyl] benzamide] | 250 to 252 | 226 | 144 | 91 | 94.2 | significant inhibitory activity | –
O=C(O)c1ccc(NC(=S)NC(=O)c2ccccc2)cc1 [Compound 5a, 4-(3-Benzoylthioureido)benzoic acid] | 212 to 224 | > 100000 | 2930 | 1500 | 465 | – | –
CCOC(=O)c1ccc(NC(=S)NC(=O)c2ccc(Br)cc2)cc1 [Compound 6d, Ethyl-4-[3-(4-bromobenzoyl)thioureido]benzoate] | 218 to 220 | > 100000 | > 100000 | 85.4 | 31 | – | –
COc1cc(NC(C)=O)ccc1C(=O)NC(=S)Nc1ccc(C(=O)O)cc1 [Compound 13a, 4-[3-(4-Acetamido-2-methoxybenzoyl)thioureido]benzoic acid] | 245 to 247 | > 100000 | 1090 | 1710 | 647 | – | –
CCOC(=O)c1ccc(NC(=S)NC(=O)c2ccc(Cl)c(Cl)c2)cc1 [Compound 6c, Ethyl 4-[3-(3,4-dichlorobenzoyl)thioureido]benzoate] | 216 to 218 | > 100000 | 239 | 809 | > 100000 | – | –
CC(=O)NC(=S)Nc1ccc(S(N)(=O)=O)cc1 [IV] | – | – | – | – | – | – | 2140
CCOC(=O)c1ccc(NC(=S)NC(=O)c2ccccc2)cc1 [Compound 6a, Ethyl-4-(3-benzoylthioureido)benzoate] | 223 to 235 | > 100000 | 1740 | > 100000 | > 100000 | – | –
CCOC(=O)c1ccc(NC(=S)NC(=O)c2ccc(NC(C)=O)cc2OC)cc1 [Compound 14a, Ethyl-4-[3-(4-acetamido-2-methoxybenzoyl)thioureido]benzoate] | 237 to 239 | > 100000 | 1150 | > 100000 | > 100000 | – | –
CCOC(=O)c1ccc(NC(=S)NC(=O)c2ccc(NC(=O)C(C)C)cc2OC)cc1 [Compound 14b, Ethyl-4-[3-(4-isobutyramido-2-methoxybenzoyl)thioureido]benzoate] | 245 to 247 | > 100000 | 1500 | > 100000 | > 100000 | – | –
NS(=O)(=O)c1ccc(NC(=S)NC(=O)c2ccc(Br)cc2)cc1 [Compound 4d, 4-Bromo-N-[(4-sulfamoylphenyl)carbamothioyl]benzamide] | 215 to 217 | 82 | > 100000 | 65 | 67 | significant inhibitory activity | –
O=C(O)c1ccc(NC(=S)NC(=O)c2ccc(Br)cc2)cc1 [Compound 5d, 4-[3-(4-Bromobenzoyl)thioureido]benzoic acid] | 206 to 215 | > 100000 | > 100000 | 5560 | > 100000 | significant inhibitory activity | –
NS(=O)(=O)c1ccc(NC(=S)NC(=O)c2ccccc2)cc1 [Compound 4a, N-[(4-Sulphamoylphenyl)carbamothioyl]benzamide] | – | 57.4 | 106 | – | – | – | –
COc1cc(NC(=O)C(C)C)ccc1C(=O)NC(=S)Nc1ccc(S(N)(=O)=O)cc1 [Compound 12b, 4-Isobutyramido-2-methoxy-N-[(4-sulfamoylphenyl)carbamothioyl] benzamide] | 248 to 250 | > 100000 | 1780 | > 100000 | 2770 | – | –
COc1ccc(NC(=S)NC(=O)c2ccc(C(F)(F)F)cc2)cc1OC [II] | – | – | – | – | – | – | 1900
O=C(O)c1ccc(NC(=S)NC(=O)c2ccc(Cl)c(Cl)c2)cc1 [Compound 5c, 4-[3-(3,4-Dichlorobenzoyl)thioureido]benzoic acid] | 216 to 218 | > 100000 | 1740 | > 100000 | 6000 | – | –
O=C(O)c1ccc(NC(=S)NC(=O)c2ccc(Cl)cc2)cc1 [Compound 5b, 4-[3-(4-Chlorobenzoyl)thioureido]benzoic acid] | 232 to 240 | > 100000 | > 100000 | 8800 | 5540 | – | –
CCOC(=O)c1ccc(NC(=S)NC(=O)c2ccc(NC(=O)c3ccc(C)cc3)cc2OC)cc1 [Compound 14c, Ethyl-4-[3-(2-methoxy-4-(4-methylbenzamido)benzoyl)thioureido]benzoate] | 257 to 259 | > 100000 | 1370 | > 100000 | 2020 | – | –
NS(=O)(=O)c1ccc(NC(=S)NC(=O)c2ccc(Cl)c(Cl)c2)cc1 [Compound 4c, 3,4-Dichloro-N-[(4-sulphamoylphenyl)carbamothioyl]benzamide] | 206 to 208 | 88.1 | > 100000 | 40.4 | 90 | significant inhibitory activity | –
O=C(NC(=S)Nc1ccccc1)c1ccc(C(F)(F)F)cc1 [III] | – | – | – | – | – | – | 2480
COc1cc(NC(=O)C(C)C)ccc1C(=O)NC(=S)Nc1ccc(C(=O)O)cc1 [Compound 13b] | 256 to 258 | > 100000 | 289 | > 100000 | 193 | – | –
COc1cc(NC(=O)c2ccc(C)cc2)ccc1C(=O)NC(=S)Nc1ccc(C(=O)O)cc1 [Compound 13c, 4-(3-(2-Methoxy-4-(4-methylbenzamido)benzoyl)thioureido]benzoic acid] | 281 to 283 | > 100000 | 802 | > 100000 | 504 | – | –
NS(=O)(=O)c1ccc(NC(=S)NC(=O)c2ccc(Cl)cc2)cc1 [Compound 4b, 4-Chloro-N-[(4-sulfamoylphenyl)carbamothioyl]benzamide] | 226 to 234 | > 100000 | 115 | 58.5 | 58.1 | significant inhibitory activity | –

Reference: article PMC9542353, “Design and synthesis of some new benzoylthioureido phenyl derivatives targeting carbonic anhydrase enzymes” (Journal of Enzyme Inhibition and Medicinal Chemistry, 2022)
